Key:
[1] = system: HUVEC; assay: Spheroid-based angiogenesis assay, Deferoxamine (hypoxia) induced HUVEC sprouting; format: cell-based, human
Experimental: (§1) Prior application the stock solution [100 mM] of IMD-019064 was diluted 1:10 in DMSO and serially diluted in half logarithmic steps covering the concentration range from 10 mM to 1 μM using 100% DMSO. The final assay concentration ranged from 100 μM to 10 nM with a final DMSO concentration in the assay of 1%. The experiments were pursued in modification of the originally published protocol (Korff and Augustin: J Cell Sci 112: 3249-58, 1999). In brief, spheroids were prepared as described by Korff and Augustin: J Cell Biol 143: 1341-52, 1998) by pipetting 500 endothelial cells (EC) in a hanging drop on plastic dishes to allow overnight spheroid aggregation. 50 EC spheroids were then embedded in 0.9 ml of a 3D collagen matrix and pipetted into individual wells of a 24 well plate to allow polymerization.
(§2) Plates were incubated at 37° C. for 24 hours and fixed by adding 4% paraformaldehyde. The cumulative sprout length of 10 randomly selected spheroids per data point was analyzed and the relative inhibition by the test compound determined. Fitting of IC50 curves and calculation of IC50 values was performed with GraphPad Prism 5.01. Sprouting intensity of EC and fibroblast spheroids was quantitated by an image analysis system using an inverted microscope and the digital imaging software Analysis 3.2 (Soft imaging system, Munster, Germany). In parallel NHDF (fibroblast) spheroids were embedded in a 3D collagen gel and treated for 24 h with different concentrations of IMD-019064. The cumulative sprout length of 10 randomly selected spheroids per data point was analyzed according to the procedure used for the HUVEC experiment.
The same assays were performed with IMD-026260; IMD-026259; Sutent® (Sunitinib) and Sorafenib (Nexavar®) (see Table 3 for final compound concentrations).

[2] = system: HIF-1; assay: HIF-1-dependent luciferase reporter gene activity in 293T cells under hypoxia; format: cell-based, human; settings: for time-dependency of inhibition of HIF-1-dependent luciferase expression: 250 nM, added 4 hours after induction of hypoxia (8 h, 1% O2)
Experimental: A HIF-1-dependent luciferase reporter gene was transfected into 293T cells by transfection with Rotifect™ (Trademarked by Carl Roth GmbH; Karlsruhe, Germany) or alternatively into Jurkat T cells by electroporation. Both cell lines were transfected with a HIF-1-dependent reporter gene. The next day, cells were preincubated for 1 h with the indicated, submicromolar concentrations of the test compounds and then incubated for further 8 h under normoxic or hypoxic (1% O2) conditions. After that, cells were harvested followed by the analysis of luciferase activity in a luminometer.
A HIF-1-dependent luciferase reporter gene was transfected into 293T cells. The next morning, cells were pretreated for 1 h with the indicated concentrations of compounds, followed by induction of hypoxia (hypoxia chamber) for 8 h. Subsequently cells were harvested and lyzed. Luciferase activity in cell extracts was measured in a luminometer (Duo Lumat LB 9507, Berthold) by injecting 20 microliter of assay buffer to 20 microliter of extract. Light emission was measured for 10 s, relative light units are given.
After transfection of 293T cells with a HIF-1-dependent luciferase reporter gene, cells were further incubated under normoxic or hypoxic (8 h, 1% O2) conditions as shown in FIG. 4. Effectively blocking concentrations of the IMDs (250 nM each) were added either 1 hour prior to hypoxia or 2 and 4 hours after induction of hypoxia.

[3] = system: HIF-1α mRNA; assay: Hif-1α mRNA expression by real-time PCR; format: cell-based; settings: human cells, 250 nM for 3 h, normoxic or hypoxic (45 minutes, 1% O2)
Experimental: In order to investigate whether the compounds of the invention do exert their HIF-1-1 suppressive action via inhibition of HIF-1-1 transcription the compounds were tested for their effects on HIF-1α mRNA production. In all experiments, human cells were exposed to efficiently blocking concentrations (250 nM) of the test compounds for 3 h. Then cells were further cultivated under normoxic or hypoxic conditions (45 minutes, 1% O2) respectively. Afterwards cell samples were harvested and RNA was extracted. cDNA was synthesized using specific primers and the PE Applied Biosystems Reverse Transcription Reagents. Real-time PCR was performed by using the SYBR Green I detection chemistry (Applied Biosystems) and an ABI Prism 7300 system. The expression of Hif-1α was quantified and results were normalized to Hprt1 and β-Actin (“housekeeping-gene”) expression. The relative abundance of the different genes was calculated by the comparative CT method. HIF-1α transcription of normoxic control cells was arbitrarily set to 1. […] Therefore an effect of IMD-compounds on HIF-1-dependent gene expression seems not to be mediated on HIF-1α transcription (FIG. 5).

[4] = system: HIF-1α protein; assay: Hypoxia induced HIF-1α protein accumulation in 293T cells (immunoblotting); format: cell-based, human; settings: 250 nM, 1 h preincubation, hypoxia 4 h, 1% O2
Experimental: Effects of IMD-026259, IMD-026260 and IMD-019064 on the stabilisation/accumulation of HIF-1α protein were investigated. 293T cells were preincubated with the indicated concentrations of all three compounds. After 1 h of pre-incubation, 293T cells were pre-incubated with the indicated concentrations of compounds and then further incubated under normoxic or hypoxic (4 h, 1% O2) conditions respectively. After lysis of cells in 1×SDS sample buffer and sonication, the samples were analyzed for HIF-1α abundance by immunoblotting.

[5] = system: cell-free protein translation (BMV mRNA, ribosomes); assay: Cell-free protein translation of Brome mosaic virus (BMV) mRNA with ribosomes; format: biochemical; settings: for effect on in vitro protein translation: relevant (nM) concentrations, SDS-PAGE
Experimental: The effect of IMD-019064 on cell-free protein translation in vitro was investigated (see also assay principle in FIG. 8). Brome mosaic virus (BMV) mRNA encoding for 4 different viral proteins was incubated with ribosomes in the presence and absence of IMD-019064 (FIG. 9a), IMD-026259, IMD-026260 (FIG. 9b), or cycloheximide (Chx, 10 μM) (positive control) and the formed proteins analyzed by SDS-PAGE.
Panels show representative SDS-PAGE protein gels. Vehicle-containing translation reactions (Veh) represent 100% translation efficacy, while Cycloheximide (Chx; 10 μg/ml) a known inhibitor of protein translation that was used as a positive control does show significant protein reduction.

[6] = system: endothelial cells; assay: Incorporation of radiolabeled amino acids into unstimulated and IL-1b-stimulated endothelial cells; format: cell-based
Experimental: Compounds of the formula (I) have been reported in the literature to be un-specific inhibitors of protein synthesis. Thus, the question whether IMD-019064 (a rocaglaol derivative) is a direct inhibitor of protein synthesis has been addressed at different levels. Cellular assays (incorporation of radiolabeled amino acids into unstimulated and IL-1b-stimulated endothelial cells) were performed in order to investigate if inhibition of activated signaling cascades (e.g. IL-1 signalling pathway) may contribute to inhibitory activity of IMD-019064.

[7] = system: IKKy/NEMO; assay: Cellular protein translation in 293T cells (anti-IKKy/NEMO immunoblotting); format: cell-based, human; settings: 10 h and 24 h; for anti-IKKy/NEMO signal (cellular protein translation): 100 nM
Experimental: 293T cells were grown in the presence of the known translation inhibitor cycloheximide (10 μg/ml) and 100 nM of IMD-019064, IMD-026259 and IMD-026260 respectively. […] Cells were harvested after 10 h and 24 h and cell lysates were produced. Equal amounts of protein contained in the cell lysates were used for immunoblotting with anti-IKKy/NEMO antibodies as shown in FIG. 12. IKKy/NEMO is a constitutively expressed relatively labile protein. Thus successful inhibition of cellular protein translation should result in significant decline of anti-IKKy/NEMO signal.

[8] = system: NHDF (fibroblast); assay: NHDF (fibroblast) spheroid sprouting/scattering in 3D collagen gel; format: cell-based; settings: Homo sapiens, 24 h, read-out: IC50, NHDF fibroblast spheroid sprouting/scattering
Experimental: as §1, with “50 EC spheroids were then embedded in 0.9 ml of a 3D collagen matrix and pipetted into individual wells of a 24 well plate to allow polymerization.” left out
as §2, with “Fitting of IC50 curves and calculation of IC50 values was performed with GraphPad Prism 5.01.” left out, “In parallel NHDF (fibroblast) spheroids were embedded in a 3D collagen gel and treated for 24 h with different concentrations of IMD-019064.” left out, “experiment. […]” for “experiment.”

[9] = system: HUVEC; assay: Spheroid-based angiogenesis assay, VEGF-A induced HUVEC sprouting; format: cell-based, human; settings: after hypoxic or VEGF induction, summary statement
Experimental: As described in Example 4 HUVEC spheroids were generated, cultivated and embedded in a 3D collagen gel and stimulated with Vascular Endothelial Growth Factor alpha [VEGF-A; 25 ng/ml] instead of deferoxamine. Cell spheroids were treated for 24 h with different concentrations of IMD-026259; IMD-026260; Sutent® (Sunitinib) and Sorafenib (Nexavar®) (in Molar [M], as indicated in Table 4; see also FIG. 14A).
The cumulative sprout length of 10 randomly selected spheroids per data point was analyzed and the relative inhibition by the test compound determined. Fitting of IC50 curves and calculation of IC50 values was performed with GraphPad Prism® 5.01 (trademarked by GraphPad Software Inc.). […] Results from the examples described above are summarized in FIG. 14b IC50 values are given in nM for in vitro angiogenesis (HUVEC sprouting) studies after hypoxic or VEGF induction.

[10] = system: PDK1 (pyruvate dehydrogenase kinase1); assay: HIF-1 target gene PDK1 expression in 293T cells by real-time PCR; format: cell-based; settings: Homo sapiens, HEK-293T, 1 h pretreatment, 8 h hypoxia, read-out: IC50, suppression of endogenous PDK1 gene expression
Experimental: Human 293T cells were cultivated either under normoxic conditions or under hypoxic conditions (1% oxygen) for 4 and 8 hs respectively. Cells were harvested, followed by the isolation of RNA and the generation of cDNAs from Oligo (dT)20 primers using a Reverse Transcriptase kit. Then gene expression was measured by real-time PCR for the following two selected HIF-1α target genes: LDH-A (lactate dehydrogenase isoform A), and PDK1 (pyruvate dehydrogenase kinase1). Real-time PCR was performed with cDNA using specific primers and the SYBR Green I detection chemistry system (Applied Biosystems), utilizing an ABI Prism 7300 system. Actin was also measured as an internal control. The relative abundance of the different genes was calculated by the comparative CT method. In order to facilitate comparison, gene expression under normoxic conditions was arbitrarily set to 1 for each of the three genes. Two independent experiments confirmed PDK1 as the gene which was induced most prominently compared to LDH.
To investigate the capability of the compounds to inhibit PDK1, 293T cells were pretreated for 1 h with 3 different concentrations of the respective inhibitors (IMD-019064; IMD-026259; and IMD-026260). Subsequently, cells were incubated under normoxic/hypoxic conditions for further 8 h and the expression of PDK1 was quantified by real-time PCR as described above.

Row | Structure (SMILES) | time-dependency of inhibition of HIF-1-dependent luciferase expression [2] | effect on Hif-1α mRNA production [3] | effect on in vitro protein translation [5] | anti-IKKy/NEMO signal (cellular protein translation) [7] | inhibition of angiogenic sprouting in vitro (HUVEC sprouting) [9] | other results
1 | CNC(=O)c1cc(Oc2ccc(NC(=O)Nc3ccc(Cl)c(C(F)(F)F)c3)cc2)ccn1 [Nexavar, Sorafenib, reference compound] | – | – | – | – | – | activity on HUVEC sprouting ([1]; HUVECs induced by Deferoxamine (hypoxia)): did not show any activity at all
2 | COc1ccc(C23Oc4cc(OC)cc(OC)c4C2(O)C(O)CC3c2cccc(F)c2)cc1 (centres unmarked) [IMD-019064, (1,3,3a,8b)-3-(3-fluorophenyl)-6,8-dimethoxy-3a-(4-methoxyphenyl)-2,3,3a,8b-tetrahydro-1H-benzo[d]cyclopenta[b]furan-1,8b-diol] | able to inhibit HIF-1-dependent luciferase expression even when added 4 hours after hypoxic induction | did not show any effects | No significant effect | did not result in reduced anti-IKKy/NEMO signals | potent inhibitors of angiogenic sprouting in vitro | block of HIF-1α protein accumulation [4]: almost completely block; shift of the dose-response curve to higher concentrations, un-stimulated compared to IL-1 stimulated cells, inhibition of amino acid incorporation [6]: 20 factor; IC50 ([1]; Homo sapiens, HUVEC, 24 h, read-out: IC50, hypoxia induced EC (HUVEC) sprouting): 0.03 µM; difference in HUVEC and fibroblast sensitivity ([1]; NHDF IC50 versus Deferoxamine-induced HUVEC IC50): factor six; IC50 [8]: 0.18 µM
3 | OC1CC(c2ccccc2)C2(c3ccc(Cl)cc3)Oc3cc(OCCN4CCCC4)ccc3C12O (centres unmarked) [IMD-026259, (1,3a,8b)-3a-(4-chlorophenyl)-3-phenyl-6-(2-(pyrrolidin-1-yl)ethoxy)-2,3,3a,8b-tetrahydro-1H-benzo[d]cyclopenta[b]furan-1,8b-diol] | able to inhibit HIF-1-dependent luciferase expression even when added 4 hours after hypoxic induction | did not show any effects | No significant effect | did not result in reduced anti-IKKy/NEMO signals | potent inhibitors of angiogenic sprouting in vitro | IC50 ([2]; Homo sapiens, HEK-293T, 1 h pretreatment, hypoxia 8 h, read-out: IC50, HIF-1 luciferase inhibitory activity): 0.019 µM; IC50 [10]: 0.009 µM
4 | C[C@@H]1C[C@@H]([C@H](O)CC2CC(=O)NC(=O)C2)C(=O)[C@@H](C)C1 [cycloheximide, reference compound] | – | – | – | – | – | effect on in vitro protein translation (positive control) ([5]; cycloheximide 10 μM / 10 μg/ml): potently suppressed formation of newly synthesized proteins; inhibition of cellular protein translation (positive control) ([7]; cycloheximide 10 μg/ml): powerful inhibition of protein translation

Reference: patent publication US20120040956A1, “INHIBITORS OF HIF-1 PROTEIN ACCUMULATION” (INTERMED DISCOVERY GMBH, priority 2008, published 2012)
